The values below come from US20240317712A1, “[…] DERIVATIVES AS INHIBITORS OF […]-PEPTIDE CYCLOTRANSFERASE AND […]-PEPTIDE CYCLOTRANSFERASE LIKE PROTEIN” (Boehringer Ingelheim International GmbH, priority 2023, published 2024).

In general, IC50 refers to the concentration at which inhibition is half-maximal. By efflux ratio is commonly meant the permeability from basolateral to apical divided by that in the opposite direction, in the common usage. Broadly, the Papp A→B is the apparent permeability from the apical to the basolateral side of a cell layer. Low values mean poor permeation, high ones ready permeation.

T1 sequence (Q9NXS2 whole entry): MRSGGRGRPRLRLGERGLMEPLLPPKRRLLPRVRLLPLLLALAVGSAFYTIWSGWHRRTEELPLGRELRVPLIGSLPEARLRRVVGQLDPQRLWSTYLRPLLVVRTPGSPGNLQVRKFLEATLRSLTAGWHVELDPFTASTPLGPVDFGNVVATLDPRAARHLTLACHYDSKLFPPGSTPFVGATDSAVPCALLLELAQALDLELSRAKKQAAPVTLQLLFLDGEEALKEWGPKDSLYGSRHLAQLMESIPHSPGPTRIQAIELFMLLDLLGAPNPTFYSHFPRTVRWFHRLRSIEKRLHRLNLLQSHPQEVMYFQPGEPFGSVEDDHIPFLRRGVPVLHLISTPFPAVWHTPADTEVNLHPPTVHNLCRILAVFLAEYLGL

One series relates to SIRPα signalling induced by A549 cells. Nature of the series: Assay B: SIRPα signalling assay using A549 cells. The following applies: Homo sapiens, 48 h compound incubation, Jurkat PathHunter SIRPaV1 reporter cells, read-out: Inhibition of SIRPα signalling induced by A549 cells: IC50. It counts as cell-based. The procedure:
(§1) Two cell types are independently used: the Raji cell line (lymphoblast-like human cell line derived from B lymphocytes from a Burkitt's lymphoma patient in 1963) and A549 cells (adenocarcinoma human alveolar basal epithelial cells).
(§2) Test compounds were dissolved in 100% DMSO and serially diluted into a white 384-well microtiter cell culture plate (PerkinElmer #60076780 in case of Raji assay; PDL-coated plates Greiner #781945 in case of A549 assay), 5000 Raji cells (ATCC #CC86) or 5000 A549 cells (ATCC #CCL-185) in Assay Complete Cell Plating reagent 30 (DiscoverX 93-0563R30B) were added per well. The assay plate was incubated for 48 h at 37° C., 95% humidity and 5% CO2. 15000 reporter cells (Jurkat PathHunter SIRPaV1, DiscoverX #93-1135C19) were added to each well, and the plate was incubated for 5 h at 37° C., 95% humidity and 5% CO2. Bioassay reagent 1 of the PathHunter Bioassay detection kit (DiscoverX 93-0001) was added to each well of the plate using a multichannel pipette followed by a 15 min incubation at room temperature. Afterwards bioassay reagent 2 was added followed by 60 min incubation at room temperature (incubation in the dark). The analysis of the data was performed using the luminescence signal generated by beta-galactosidase in the PathHunter reporter cell line. The luminescence measurement was done using a Pherastar Multi-Mode Reader. Dose-response curves & IC50 data were calculated with 4-parameter sigmoidal dose response formula.
With `Cn1cnnc1C1CCN(c2c(C#N)ccc(OCC3CC3)c2-c2ccc(F)nc2)CC1` [Example 11], the IC50 was found to be 43 nM.
Still for that read-out and setting: under `Cn1cnnc1C1(F)CCN(c2c(-c3ccc(F)nc3)ccc(Cl)c2C#N)CC1` [Example 28] stands 12 nM; under `Cn1cnnc1C1CCN(c2c(C#N)cc(C(F)(F)F)cc2-c2ccc(F)nc2)CC1` [Example 3], 12 nM.
The same measure, in the same setting: as for `Cn1cnnc1C1(F)CCN(c2c(-c3cnc4nn(C(C)(C)C)cc4c3)ccc(Cl)c2C#N)CC1` [Example 27], the figure is 7 nM; as for `Cn1cnnc1C1(F)CCN(c2c(C#N)cc(Cl)cc2-c2cnc3nn(C(C)(C)C)cc3c2)CC1` [Example 19], 9 nM.
For `CC(C)Oc1ccc(C#N)c(N2CCC(c3nncn3C)CC2)c1-c1ccc(F)nc1` [Example 10], the IC50 stood at 9 nM.
With `Cn1cnnc1C1(F)CCN(c2c(C#N)cc(C(F)(F)F)cc2-c2cnc3nc(C4(C)CC4)nn3c2)CC1` [Example 35], the IC50 amounted to 6 nM.
The same measure, in the same setting: under `Nc1ncc(C2CCN(c3ncccc3-c3ccc(F)nc3)CC2)s1` [Prior art Compound 1094, reference compound] stands 3060 nM.
On the same count and under the same terms, as for `Cn1cnnc1C1CCN(c2c(C#N)cc(F)cc2-c2cnc3nn(C(C)(C)C)c(Cl)c3c2)CC1` [Example 26], the figure is 8 nM; as for `Cn1cnnc1C1(F)CCN(c2c(-c3cnc4nn(C(C)(C)C)cc4c3)ccc(OCCC(C)(C)O)c2C#N)CC1` [Example 34], 73 nM.

Another series addresses T1, QPCTL (Homo sapiens, UniProt Q9NXS2).
T1 construct: made in house
Briefly: Assay A: biochemical QPCTL activity assay (MALDI-TOF MS, CD47 peptide substrate). To be noted: 0.5 nM enzyme, 10 μM CD47 peptide substrate; read-out: Inhibition of QPCTL: IC50. The protocol: (§3) QPCT or QPCTL dependent conversion of N-terminal glutamine to pyroglutamate of CD47 was monitored via MALDI-TOF MS. Test compounds were dissolved in 100% DMSO and serially diluted into clear 1,536-well microtiter plates. Enzymatic reactions were set up in assay buffer containing 20 mM Tris pH 7.5, 0.1 mM TCEP, 0.01% BSA, and 0.001% Tween20. […] The plates were incubated for 10 min in a humidified incubator at 24° C. Subsequently, 2.5 µL of CD47 peptide substrate surrogate (^19[…]^33) was added to each well (final concentration: 10 μM for QPCTL/20 μM for QPCT). The plates were mixed for 30 sec at 1,000 rpm and subsequently incubated for 40 min in a humidified incubator at 24° C. […] The plates were sealed with an adhesive foil, mixed for 30 s at 1,000 rpm and stored at room temperature until preparation of the MALDI target plates. MALDI target plates were prepared as described previously. […] QPCT or QPCTL activity was monitored by calculating the ratio between product and internal standard signals followed by normalization to high (100% activity) and low (0% activity) controls. Determination of compound potencies was obtained by fitting the dose-response data to a four-parameter logistical equation.
Turning to `Cn1cnnc1C1CCN(c2c(C#N)ccc(OCC3CC3)c2-c2ccc(F)nc2)CC1` [Example 11], the IC50 turned out to be 1 nM.
Same read-out and setting: under `Cn1cnnc1C1(F)CCN(c2c(-c3ccc(F)nc3)ccc(Cl)c2C#N)CC1` [Example 28] stands 2 nM; under `Cn1cnnc1C1CCN(c2c(C#N)cc(C(F)(F)F)cc2-c2ccc(F)nc2)CC1` [Example 3], 3 nM.
Turning to `Cn1cnnc1C1(F)CCN(c2c(-c3cnc4nn(C(C)(C)C)cc4c3)ccc(Cl)c2C#N)CC1` [Example 27], the IC50 worked out at 1 nM.
Still for that read-out and setting: under `Cn1cnnc1C1(F)CCN(c2c(C#N)cc(Cl)cc2-c2cnc3nn(C(C)(C)C)cc3c2)CC1` [Example 19] stands 1 nM; under `CC(C)Oc1ccc(C#N)c(N2CCC(c3nncn3C)CC2)c1-c1ccc(F)nc1` [Example 10], 1 nM.
For the molecule `Nc1nnc(C2CCN(c3ncccc3-c3ccc(F)nc3)CC2)s1` [Prior art Compound 1095, reference compound], the IC50 is 13 nM.
Same read-out and setting: under `Cn1cnnc1C1(F)CCN(c2c(C#N)cc(C(F)(F)F)cc2-c2cnc3nc(C4(C)CC4)nn3c2)CC1` [Example 35] stands 1 nM.
The same measure, in the same setting: under `Nc1ncc(C2CCN(c3ncccc3-c3ccc(F)nc3)CC2)s1` [Prior art Compound 1094, reference compound] stands 111 nM; under `Cn1cnnc1C1CCN(c2c(C#N)cc(F)cc2-c2cnc3nn(C(C)(C)C)c(Cl)c3c2)CC1` [Example 26], 1 nM.
On the same count and under the same terms, under `Cn1cnnc1C1(F)CCN(c2c(-c3cnc4nn(C(C)(C)C)cc4c3)ccc(OCCC(C)(C)O)c2C#N)CC1` [Example 34] stands 1 nM.

A further series deals with T2, QPCT (Homo sapiens, UniProt Q16769).
T2 construct: purchased Origine (so in the source)
T2 sequence (Q16769 29-361): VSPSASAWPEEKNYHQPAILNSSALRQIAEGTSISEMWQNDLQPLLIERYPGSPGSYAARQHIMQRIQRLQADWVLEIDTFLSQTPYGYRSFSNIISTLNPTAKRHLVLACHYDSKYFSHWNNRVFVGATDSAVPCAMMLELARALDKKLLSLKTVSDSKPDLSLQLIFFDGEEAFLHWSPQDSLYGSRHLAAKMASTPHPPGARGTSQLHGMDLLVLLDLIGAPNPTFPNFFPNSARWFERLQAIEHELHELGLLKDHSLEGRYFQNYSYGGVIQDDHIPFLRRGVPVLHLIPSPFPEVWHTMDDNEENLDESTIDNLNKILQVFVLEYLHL
Nature of the series: Assay A: biochemical QPCT activity assay (MALDI-TOF MS, CD47 peptide substrate). To be noted: 0.5 nM enzyme, 20 μM CD47 peptide substrate; read-out: Inhibition of QPCT: IC50. The protocol: as §3
For `Cn1cnnc1C1CCN(c2c(C#N)ccc(OCC3CC3)c2-c2ccc(F)nc2)CC1` [Example 11], the IC50 is 2 nM.
On the same count and under the same terms, as for `Cn1cnnc1C1(F)CCN(c2c(-c3ccc(F)nc3)ccc(Cl)c2C#N)CC1` [Example 28], the figure is 2 nM; as for `Cn1cnnc1C1CCN(c2c(C#N)cc(C(F)(F)F)cc2-c2ccc(F)nc2)CC1` [Example 3], 12 nM.
Same read-out and setting: under `Cn1cnnc1C1(F)CCN(c2c(-c3cnc4nn(C(C)(C)C)cc4c3)ccc(Cl)c2C#N)CC1` [Example 27] stands 1 nM.
On the same count and under the same terms, under `Cn1cnnc1C1(F)CCN(c2c(C#N)cc(Cl)cc2-c2cnc3nn(C(C)(C)C)cc3c2)CC1` [Example 19] stands 1 nM.
In the case of `CC(C)Oc1ccc(C#N)c(N2CCC(c3nncn3C)CC2)c1-c1ccc(F)nc1` [Example 10], the IC50 turned out to be 1 nM.
Same read-out and setting: under `Nc1nnc(C2CCN(c3ncccc3-c3ccc(F)nc3)CC2)s1` [Prior art Compound 1095, reference compound] stands 260 nM.
Regarding `Cn1cnnc1C1(F)CCN(c2c(C#N)cc(C(F)(F)F)cc2-c2cnc3nc(C4(C)CC4)nn3c2)CC1` [Example 35], the IC50 was determined as 2 nM.
Same read-out and setting: as for `Nc1ncc(C2CCN(c3ncccc3-c3ccc(F)nc3)CC2)s1` [Prior art Compound 1094, reference compound], the figure is 1710 nM; as for `Cn1cnnc1C1CCN(c2c(C#N)cc(F)cc2-c2cnc3nn(C(C)(C)C)c(Cl)c3c2)CC1` [Example 26], 1 nM.
Regarding `Cn1cnnc1C1CCN(c2ncccc2-c2cccnc2)CC1` [SEN180, reference compound], the IC50 is 176 nM.

Tested on in a further series: not listed separately
Briefly: Assay C: Permeability in CACO-2 cells. It counts as in vitro ADME. To be noted: human, pH 7.2; Caco-2, permeability B−A/permeability A−B. The procedure: Caco-2 cells (1-2×10^5 cells/1 cm^2 area) are seeded on filter inserts (Costar transwell polycarbonate or PET filters, 0.4 μm pore size) and cultured (DMEM) for 10 to 25 days. Compounds are dissolved in appropriate solvent (like DMSO, 1-20 mM stock solutions). […] The transport solution (TL) is applied to the apical or basolateral donor side for measuring A-B or B-A permeability (3 filter replicates), respectively. Samples are collected at the start and end of experiment from the donor and at various time intervals for up to 2 hours also from the receiver side for concentration measurement by HPLC-MS/MS or scintillation counting. Sampled receiver volumes are replaced with fresh receiver solution.
Efflux ratio (ER)=permeability B−A/permeability A−B
For orientation: Caco-2 monolayers are a common model of the intestinal barrier.
In the case of `Cn1cnnc1C1CCN(c2c(C#N)ccc(OCC3CC3)c2-c2ccc(F)nc2)CC1` [Example 11], the efflux ratio stood at 3.2.
Turning to `Cn1cnnc1C1(F)CCN(c2c(-c3ccc(F)nc3)ccc(Cl)c2C#N)CC1` [Example 28], the efflux ratio amounted to 1.7.
On the same count and under the same terms, under `Cn1cnnc1C1CCN(c2c(C#N)cc(C(F)(F)F)cc2-c2ccc(F)nc2)CC1` [Example 3] stands 10.4; under `Cn1cnnc1C1(F)CCN(c2c(-c3cnc4nn(C(C)(C)C)cc4c3)ccc(Cl)c2C#N)CC1` [Example 27], 19.1; under `Cn1cnnc1C1(F)CCN(c2c(C#N)cc(Cl)cc2-c2cnc3nn(C(C)(C)C)cc3c2)CC1` [Example 19], 4.5.
Still for that read-out and setting: under `CC(C)Oc1ccc(C#N)c(N2CCC(c3nncn3C)CC2)c1-c1ccc(F)nc1` [Example 10] stands 2.4; under `Cn1cnnc1C1(F)CCN(c2c(C#N)cc(C(F)(F)F)cc2-c2cnc3nc(C4(C)CC4)nn3c2)CC1` [Example 35], 17.1; under `Cn1cnnc1C1CCN(c2c(C#N)cc(F)cc2-c2cnc3nn(C(C)(C)C)c(Cl)c3c2)CC1` [Example 26], 3.9.

Still in this series, the particulars now being: human; Caco-2, apical to basolateral, pH 7.2.
Turning to `Cn1cnnc1C1CCN(c2c(C#N)ccc(OCC3CC3)c2-c2ccc(F)nc2)CC1` [Example 11], the Papp A→B was 28 ×10⁻⁶ cm/s.
`Cn1cnnc1C1(F)CCN(c2c(-c3ccc(F)nc3)ccc(Cl)c2C#N)CC1` [Example 28] yielded a Papp A→B of 34 ×10⁻⁶ cm/s.
The same measure, in the same setting: as for `Cn1cnnc1C1CCN(c2c(C#N)cc(C(F)(F)F)cc2-c2ccc(F)nc2)CC1` [Example 3], the figure is 9 ×10⁻⁶ cm/s; as for `Cn1cnnc1C1(F)CCN(c2c(-c3cnc4nn(C(C)(C)C)cc4c3)ccc(Cl)c2C#N)CC1` [Example 27], 2.2 ×10⁻⁶ cm/s.
Molecule `Cn1cnnc1C1(F)CCN(c2c(C#N)cc(Cl)cc2-c2cnc3nn(C(C)(C)C)cc3c2)CC1` [Example 19] registered a Papp A→B of 18 ×10⁻⁶ cm/s. This Papp A→B is about 8.2-fold higher than that of the molecule before.
On the same count and under the same terms, as for `CC(C)Oc1ccc(C#N)c(N2CCC(c3nncn3C)CC2)c1-c1ccc(F)nc1` [Example 10], the figure is 30 ×10⁻⁶ cm/s; as for `Cn1cnnc1C1(F)CCN(c2c(C#N)cc(C(F)(F)F)cc2-c2cnc3nc(C4(C)CC4)nn3c2)CC1` [Example 35], 4.8 ×10⁻⁶ cm/s.
Regarding `Cn1cnnc1C1CCN(c2c(C#N)cc(F)cc2-c2cnc3nn(C(C)(C)C)c(Cl)c3c2)CC1` [Example 26], the Papp A→B came to 14 ×10⁻⁶ cm/s.

In the next series the test system is SIRPα signalling induced by Raji cells. Briefly: Assay B: SIRPα signalling assay using Raji cells. It counts as cell-based. The following applies: Homo sapiens, 48 h compound incubation, Jurkat PathHunter SIRPaV1 reporter cells, read-out: Inhibition of SIRPα signalling induced by Raji cells: IC50. The procedure:
as §1, §2
For the molecule `Cn1cnnc1C1CCN(c2c(C#N)ccc(OCC3CC3)c2-c2ccc(F)nc2)CC1` [Example 11], the IC50 stood at 44 nM.
As to `Cn1cnnc1C1(F)CCN(c2c(-c3ccc(F)nc3)ccc(Cl)c2C#N)CC1` [Example 28], the IC50 came to 93 nM.
Same read-out and setting: under `Cn1cnnc1C1CCN(c2c(C#N)cc(C(F)(F)F)cc2-c2ccc(F)nc2)CC1` [Example 3] stands 19 nM; under `Cn1cnnc1C1(F)CCN(c2c(-c3cnc4nn(C(C)(C)C)cc4c3)ccc(Cl)c2C#N)CC1` [Example 27], 19 nM.
For `Cn1cnnc1C1(F)CCN(c2c(C#N)cc(Cl)cc2-c2cnc3nn(C(C)(C)C)cc3c2)CC1` [Example 19], the IC50 was found to be 9 nM.
In the case of `CC(C)Oc1ccc(C#N)c(N2CCC(c3nncn3C)CC2)c1-c1ccc(F)nc1` [Example 10], the IC50 is 52 nM.
Same read-out and setting: as for `Cn1cnnc1C1(F)CCN(c2c(C#N)cc(C(F)(F)F)cc2-c2cnc3nc(C4(C)CC4)nn3c2)CC1` [Example 35], the figure is 16 nM; as for `Cn1cnnc1C1CCN(c2c(C#N)cc(F)cc2-c2cnc3nn(C(C)(C)C)c(Cl)c3c2)CC1` [Example 26], 16 nM.
For `Cn1cnnc1C1(F)CCN(c2c(-c3cnc4nn(C(C)(C)C)cc4c3)ccc(OCCC(C)(C)O)c2C#N)CC1` [Example 34], the IC50 came to 36 nM.
